Laboratory results: PMC3618943, “Interaction of Natural Dietary and Herbal Anionic Compounds and Flavonoids with Human Organic Anion Transporters 1 (SLC22A6), 3 (SLC22A8), and 4 (SLC22A11)” (Evidence-based Complementary and Alternative Medicine : eCAM, 2013)
“Also recorded” adds a separate entry of the source. Where a name gives a salt, the structure may show the parent alone. Read-outs that look alike come from different tables or passages of the source.

Assays:
hOAT1 (SLC22A6) [1] = target: T1, hOAT1 (SLC22A6) (Homo sapiens, UniProt Q4U2R8); test: Inhibition of hOAT1-mediated [3H]PAH uptake, cell accumulation assay in CHO-hOAT1 cells; format: cell-based; conditions: for Ki: assuming competitive inhibition, 1 min uptake, read-out: inhibition constant Ki for hOAT1; for Ki / effect on hOAT1-mediated PAH uptake (in words): 1 μM [3H]PAH
T1 construct: expressed in transfected cells
T1 sequence (Q4U2R8 1-550 isoform Q4U2R8-2): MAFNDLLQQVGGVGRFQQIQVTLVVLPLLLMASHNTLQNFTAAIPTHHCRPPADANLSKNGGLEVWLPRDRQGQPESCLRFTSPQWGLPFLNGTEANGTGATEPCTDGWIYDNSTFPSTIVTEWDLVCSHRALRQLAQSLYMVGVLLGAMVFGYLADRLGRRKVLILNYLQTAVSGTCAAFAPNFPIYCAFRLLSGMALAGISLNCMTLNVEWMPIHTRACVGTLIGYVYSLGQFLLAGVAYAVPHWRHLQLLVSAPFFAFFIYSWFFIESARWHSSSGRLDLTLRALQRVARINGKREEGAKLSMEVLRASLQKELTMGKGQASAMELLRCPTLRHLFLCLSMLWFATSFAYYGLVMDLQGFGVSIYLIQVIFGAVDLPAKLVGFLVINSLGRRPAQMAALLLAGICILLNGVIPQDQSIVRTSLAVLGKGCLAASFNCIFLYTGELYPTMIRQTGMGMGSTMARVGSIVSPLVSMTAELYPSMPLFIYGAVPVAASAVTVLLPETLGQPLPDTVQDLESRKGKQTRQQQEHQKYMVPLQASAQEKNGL
Description: (§1) The cell accumulation assay protocol was performed as described in our recent publications with minor modifications. In brief, 2 × 10^5 cells/well were seeded in 24-well tissue culture plates and grown in the absence of antibiotics for two days. For transport experiments cells were preincubated in transport buffer without substrates or inhibitors for 10 min after which time the buffer was replaced with 400 μL of fresh transport buffer containing 1 μM [^3H]PAH (0.5 μCi/mL) or [^3H]ES (0.25 μCi/mL) with or without test compounds. After incubation for times specified in the figure legends, cellular uptake was quenched by quickly rinsing each well three times with fresh ice-cold transport buffer. Cells were lysed with 1 M NaOH and radioactivity was measured with a liquid scintillation counter and reported as picomoles of substrate per milligram total protein. All intracellular uptake data were corrected for background accumulation in corresponding empty vector transfected control cells. Kinetic calculations were performed using GraphPad Prism Software version 5.0 (GraphPad Software Inc., San Diego, CA). The half maximal inhibitory concentrations (IC50) and inhibitory constants (K i) were calculated using nonlinear regression with the appropriate models. Results were confirmed by repeating all experiments at least three times with triplicate wells for each data point.
Ten-minute uptake of [^3H]PAH (1 μM) was measured in CHO-hOAT1 cells in the absence and presence of test compounds (50 μM) or probenecid (1000 μM). Data represent hOAT1-mediated transport specifically, that is, data have been corrected for background PAH accumulation measured in empty vector transfected cells. Values are mean ± S.D. of triplicate values from a representative experiment. ** denotes P < 0.01, and *** denotes P < 0.001 as determined by one-way ANOVA followed by Dunnett's t-test.
One-minute uptake of [^3H]PAH (1 μM) in CHO-hOAT1 cells was measured in the presence of increasing concentrations (10^−7 to 5 × 10^−4 M) of test compounds. Data were corrected by subtracting background PAH accumulation measured in empty vector transfected cells. IC50 values were determined with nonlinear regression and the “log(inhibitor) versus response” model using GraphPad Prism software. Experiments were repeated three times with triplicate samples and graphs shown are from representative experiments with values plotted as mean ± S.D. (n = 3). The data were used to generate mean IC50 ± S.E.M. estimates.

hOAT3 (SLC22A8) [2] = target: T2, hOAT3 (SLC22A8) (Homo sapiens, UniProt Q8TCC7); test: Inhibition of hOAT3-mediated [3H]ES uptake, cell accumulation assay in HEK-hOAT3 cells; format: cell-based; conditions: 10 min uptake; for inhibition at 50 µM / effect on hOAT3-mediated ES uptake (in words): 50 μM test compound; for inhibition at 50 µM: 1 μM [3H]ES (50-fold excess)
T2 construct: expressed in transfected cells
T2 sequence (Q8TCC7 1-542): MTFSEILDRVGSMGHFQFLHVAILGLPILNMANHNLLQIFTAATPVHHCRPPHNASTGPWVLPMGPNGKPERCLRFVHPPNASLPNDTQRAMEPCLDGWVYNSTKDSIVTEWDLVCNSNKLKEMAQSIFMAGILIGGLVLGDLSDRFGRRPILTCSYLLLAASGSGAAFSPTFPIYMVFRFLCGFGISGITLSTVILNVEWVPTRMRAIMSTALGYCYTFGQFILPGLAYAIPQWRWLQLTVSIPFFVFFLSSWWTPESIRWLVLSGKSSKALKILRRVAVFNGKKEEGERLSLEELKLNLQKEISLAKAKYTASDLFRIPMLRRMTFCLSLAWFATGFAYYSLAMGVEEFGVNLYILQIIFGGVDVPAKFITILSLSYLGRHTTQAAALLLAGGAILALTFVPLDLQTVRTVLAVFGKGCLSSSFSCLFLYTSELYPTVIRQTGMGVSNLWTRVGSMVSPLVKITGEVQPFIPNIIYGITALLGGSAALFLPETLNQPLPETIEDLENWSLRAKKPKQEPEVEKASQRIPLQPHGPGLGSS
Description: (§2) Derivation and culture of stably transfected Chinese hamster ovary (CHO) cells expressing hOAT1 (CHO-hOAT1) and hOAT4 (CHO-hOAT4), stably transfected human embryonic kidney 293 (HEK) cells expressing hOAT3 (HEK-hOAT3), and their corresponding empty vector transfected background control cell lines, have been described previously.
as §1, with “point. […]” for “point.”
Figure 4 Inhibitory effects of the nine test compounds on hOAT3-mediated ES uptake. Ten-minute uptake of [^3H]ES (1 μM) was measured in HEK-hOAT3 cells in the absence and presence of test compounds (50 μM) or probenecid (1000 μM). Data represent hOAT3-mediated transport specifically, that is, data have been corrected for background ES accumulation measured in empty vector transfected cells. Values are mean ± S.D. of triplicate values from a representative experiment. * denotes P < 0.05, ** denotes P < 0.01, and *** denotes p < 0.001 as determined by one-way ANOVA followed by Dunnett's t-test.

hOAT1 (SLC22A6) [3] = target: T1, hOAT1 (SLC22A6); test: Inhibition of hOAT1-mediated [3H]PAH uptake, cell accumulation assay in CHO-hOAT1 cells; format: cell-based; conditions: dose-response 0.01–500 μM, 1 μM [3H]PAH, 1 min uptake, mean ± S.E.M., read-out: IC50 on hOAT1-mediated PAH transport
hOAT4 (SLC22A11) = target: T3, hOAT4 (SLC22A11) (Homo sapiens, UniProt Q9NSA0); test: Inhibition of hOAT4-mediated [3H]ES uptake, cell accumulation assay in CHO-hOAT4 cells; format: cell-based
T3 construct: expressed in transfected cells
T3 sequence (Q9NSA0 1-550): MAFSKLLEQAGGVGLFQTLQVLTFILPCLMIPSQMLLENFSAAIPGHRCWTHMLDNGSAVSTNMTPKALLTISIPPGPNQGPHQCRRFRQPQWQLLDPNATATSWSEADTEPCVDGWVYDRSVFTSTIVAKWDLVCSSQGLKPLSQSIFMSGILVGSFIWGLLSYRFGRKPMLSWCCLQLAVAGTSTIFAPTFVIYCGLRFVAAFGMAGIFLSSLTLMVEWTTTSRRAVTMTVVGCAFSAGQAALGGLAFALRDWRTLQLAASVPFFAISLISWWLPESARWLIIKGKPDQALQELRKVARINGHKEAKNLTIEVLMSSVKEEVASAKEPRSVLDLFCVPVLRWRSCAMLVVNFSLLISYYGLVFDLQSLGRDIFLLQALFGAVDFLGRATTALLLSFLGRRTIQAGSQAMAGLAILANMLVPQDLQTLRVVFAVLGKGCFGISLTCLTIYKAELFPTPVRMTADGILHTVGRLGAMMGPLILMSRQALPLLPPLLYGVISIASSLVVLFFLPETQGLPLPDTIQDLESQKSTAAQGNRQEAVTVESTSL
Description: as §2
as §1, with “point. […]” for “point.”
Figure 5 Inhibitory effects of the nine test compounds on hOAT4-mediated ES uptake. Ten minute uptake of [^3H]ES (1 μM) was measured in CHO-hOAT4 cells in the absence and presence of test compounds (50 μM) or ES (1000 μM for self-inhibition). Data represent hOAT4-mediated transport specifically, that is, data have been corrected for background ES accumulation measured in empty vector transfected cells. Values are mean ± S.D. of triplicate values from a representative experiment. * denotes P < 0.05, and *** denotes P < 0.001 as determined by one-way ANOVA followed by Dunnett's t-test.

[4] = human subjects, cited from earlier work
hOAT3 (SLC22A8) [5] = target: T2, hOAT3 (SLC22A8); design: method as in PMID 22877817; conditions: linear uptake for initial 1 min; cited from earlier work
[6] = 50 μM test compound, 1 μM [3H]PAH (50-fold excess), 10 min uptake
[7] = 50 μM test compound, 1 μM [3H]ES, 10 min uptake, CHO-hOAT4 cells
[8] = 50 μM test compound, 10 min uptake

O=C(/C=C/c1ccc(O)c(O)c1)O[C@@H]1C[C@@](OC(=O)/C=C/c2ccc(O)c(O)c2)(C(=O)O)C[C@@H](O)[C@@H]1O [1,3-Dicaffeoylquinic acid, 1,3-dicaffeoylquinic acid]
inhibition at 50 µM (hOAT1 (SLC22A6) [1]; [6]): 64% | Ki (hOAT1 (SLC22A6) [1]): 1100 ± 200 nM | inhibition at 50 µM (hOAT3 (SLC22A8) [2]): 41% | IC50 (hOAT1 (SLC22A6) [3]): 1200 ± 400 nM

O=C(C=Cc1ccc(O)c(O)c1)OC1CC(OC(=O)C=Cc2ccc(O)c(O)c2)(C(=O)O)CC(O)C1O (stereo not shown) [1,5-Dicaffeoylquinic acid, 1,5-dicaffeoylquinic acid]
inhibition at 50 µM (hOAT1 (SLC22A6) [1]; [6]): 22% | inhibition at 50 µM (hOAT3 (SLC22A8) [2]): 30 to 35% | effect on hOAT4-mediated ES uptake (in words) (hOAT4 (SLC22A11); [7]): significant stimulation of ES uptake | Cmax ([4]; oral, 600 mg): 140 nM

CC1(C)[C@@H](O)CC[C@]2(C)[C@H]3C(=O)C=C4[C@@H]5C[C@@](C)(C(=O)O)CC[C@]5(C)CC[C@@]4(C)[C@]3(C)CC[C@@H]12 [18β-glycyrrhetinic acid]
inhibition of hOAT1-mediated PAH uptake (hOAT1 (SLC22A6) [1]; [6]): 56% | Ki (hOAT1 (SLC22A6) [1]): 2500 ± 200 nM | effect on hOAT3-mediated ES uptake (in words) (hOAT3 (SLC22A8) [2]; 1 μM [3H]ES): failed to produce significant inhibition | effect on hOAT4-mediated ES uptake (in words) (hOAT4 (SLC22A11); [7]): significant stimulation of ES uptake | IC50 (hOAT1 (SLC22A6) [3]): 2700 ± 200 nM | Cmax ([4]; oral, 130–144 mg glycyrrhizin, assuming plasma 18α- : 18β-glycyrrhetinic acid about 1 : 3): 110 to 2900 nM

Oc1cc(O)c2c(c1)O[C@H](c1ccc(O)c(O)c1)[C@@H](O)C2 [Catechin]
effect on hOAT1-mediated PAH uptake (in words) (hOAT1 (SLC22A6) [1]; [8]): no inhibition | effect on hOAT3-mediated ES uptake (in words) (hOAT3 (SLC22A8) [2]; 1 μM [3H]ES): failed to produce significant inhibition | inhibition at 50 µM (hOAT4 (SLC22A11); [7]): 32% | IC50 (hOAT4 (SLC22A11); inferred from level of inhibition at 50 μM, no kinetic study, read-out: IC50 on hOAT4 transport activity): > 50000 nM

C[C@]12CC[C@@H]3c4ccc(OS(=O)(=O)O)cc4CC[C@H]3[C@@H]1CCC2=O [ES, estrone sulfate, reference compound]
inhibition of hOAT4-mediated ES uptake (self-inhibition) (hOAT4 (SLC22A11); unlabeled ES 1000 μM, 1 μM [3H]ES, 10 min uptake, CHO-hOAT4 cells): > 96% | K m of ES uptake in hOAT3 expressing cells (hOAT3 (SLC22A8) [5]): 14.5 µM

Oc1cc(O)c2c(c1)O[C@H](c1ccc(O)c(O)c1)[C@H](O)C2 [Epicatechin]
effect on hOAT1-mediated PAH uptake (in words) (hOAT1 (SLC22A6) [1]; [8]): no inhibition | inhibition at 50 µM (hOAT3 (SLC22A8) [2]): 30 to 35% | Cmax ([4]; oral, 37 mg): 200 nM

C[C@H]1[C@H](C)CC[C@]2(C(=O)O)CC[C@]3(C)C(=CC[C@@H]4[C@@]5(C)CC[C@H](O)C(C)(C)[C@@H]5CC[C@]43C)[C@H]12 [Ursolic acid]
effect on hOAT1-mediated PAH uptake (in words) (hOAT1 (SLC22A6) [1]; [8]): significant stimulation of uptake | effect on hOAT3-mediated ES uptake (in words) (hOAT3 (SLC22A8) [2]; 1 μM [3H]ES): failed to produce significant inhibition; also recorded: without effect | effect on hOAT4-mediated ES uptake (in words) (hOAT4 (SLC22A11); [7]): without effect | Cmax ([4]; i.v., 186 mg): 7400 nM

CCCCCCC=CCCCCCCCc1cccc(O)c1C(=O)O [ginkgolic acid (15 : 1)]
inhibition at 50 µM (hOAT3 (SLC22A8) [2]): 30 to 35%

CCCCCCC=CCCCCCCCCCc1cccc(O)c1C(=O)O [ginkgolic acid (17 : 1)]
inhibition at 50 µM (hOAT1 (SLC22A6) [1]; [6]): 42% | inhibition at 50 µM (hOAT3 (SLC22A8) [2]): 41%

CCCN(CCC)S(=O)(=O)c1ccc(C(=O)O)cc1 [probenecid, reference compound]
inhibition at 1000 µM (hOAT3 (SLC22A8) [2]; probenecid 1000 μM, 1 μM [3H]ES): > 96%
